Columns and labels:
[1] = target: T1, Alpha-1B adrenergic receptor (Rattus norvegicus, UniProt P15823); test: DRUGMATRIX: Alpha-1B adrenergic receptor radioligand binding (ligand: prazosin); type: cell membranes, Wistar, Liver, Membrane; settings: Not Active = under 50% inhibition at 10 µM
T1 sequence (P15823 whole entry): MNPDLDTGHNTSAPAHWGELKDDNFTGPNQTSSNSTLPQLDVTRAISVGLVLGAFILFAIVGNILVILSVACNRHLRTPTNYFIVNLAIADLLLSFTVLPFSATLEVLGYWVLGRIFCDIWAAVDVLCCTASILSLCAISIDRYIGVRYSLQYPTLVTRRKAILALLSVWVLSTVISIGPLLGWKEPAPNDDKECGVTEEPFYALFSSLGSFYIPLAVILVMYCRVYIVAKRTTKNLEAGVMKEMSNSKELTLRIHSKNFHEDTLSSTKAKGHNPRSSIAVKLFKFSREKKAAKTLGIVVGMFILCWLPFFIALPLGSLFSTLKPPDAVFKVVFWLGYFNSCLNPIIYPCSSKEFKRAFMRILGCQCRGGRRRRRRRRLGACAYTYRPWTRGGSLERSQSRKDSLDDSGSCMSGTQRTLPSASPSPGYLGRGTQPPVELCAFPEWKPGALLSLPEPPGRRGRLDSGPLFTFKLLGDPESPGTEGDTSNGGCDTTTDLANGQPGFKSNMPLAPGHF

Calcitonin receptor = target: T2, Calcitonin receptor (Homo sapiens, UniProt P30988); type: cell membranes, Membrane; settings: t47d; note: in other assays of this panel Not Active means under 50% inhibition at 10 µM
T2 sequence (P30988 whole entry): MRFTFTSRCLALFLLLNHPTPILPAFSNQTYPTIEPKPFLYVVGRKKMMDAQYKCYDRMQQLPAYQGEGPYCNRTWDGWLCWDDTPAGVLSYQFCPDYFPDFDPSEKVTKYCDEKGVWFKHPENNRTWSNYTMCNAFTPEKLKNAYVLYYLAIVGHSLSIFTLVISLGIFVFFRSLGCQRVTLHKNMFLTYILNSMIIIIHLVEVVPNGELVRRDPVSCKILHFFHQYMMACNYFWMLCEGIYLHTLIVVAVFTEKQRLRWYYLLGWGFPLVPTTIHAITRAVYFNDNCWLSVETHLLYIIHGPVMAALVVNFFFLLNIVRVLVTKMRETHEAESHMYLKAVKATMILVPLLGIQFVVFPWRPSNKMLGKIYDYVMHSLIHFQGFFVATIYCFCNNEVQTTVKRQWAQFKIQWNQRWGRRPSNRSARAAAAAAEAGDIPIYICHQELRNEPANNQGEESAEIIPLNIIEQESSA

Carbonic anhydrase 2 = Carbonic anhydrase 2 (Homo sapiens, UniProt P00918); test: DRUGMATRIX: Carbonic Anhydrase II enzyme inhibition (substrate: 4-Nitrophenyl acetate (4-NPA)); type: tissue-based, Erythrocyte; settings: Not Active = under 50% inhibition at 10 µM
[2] = target: C-C chemokine receptor type 5 (Homo sapiens, UniProt P51681); type: cell membranes, Membrane; settings: hek293; note: in other assays of this panel Not Active means under 50% inhibition at 10 µM
Leukotriene C4 synthase = target: T3, Leukotriene C4 synthase (Cavia porcellus, UniProt A6XA80); type: tissue-based, Lung;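 note: enzyme inhibition assay of leukotriene C4 synthase, using LTA4 as the substrate; in other assays of this panel Not Active means under 50% inhibition at 10 µM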
T3 sequence (A6XA80 whole entry): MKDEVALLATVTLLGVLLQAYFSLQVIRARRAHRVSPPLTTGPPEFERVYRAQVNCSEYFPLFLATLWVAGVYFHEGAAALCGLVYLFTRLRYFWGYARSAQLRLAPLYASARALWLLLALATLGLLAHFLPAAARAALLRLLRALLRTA

[3] = DRUGMATRIX: Phosphodiesterase PDE3 enzyme inhibition (substrate: [3H]cAMP + cAMP); type: tissue-based, Homo sapiens; settings: platelet; Not Active = under 50% inhibition at 10 µM
Caspase-1 = target: T4, Caspase-1 (Homo sapiens, UniProt P29466); design: species or system Escherichia coli;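 note: Caspase-1 enzyme inhibition assay with a peptide substrate; in other assays of this panel Not Active means under 50% inhibition at 10 µM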
T4 sequence (P29466 whole entry): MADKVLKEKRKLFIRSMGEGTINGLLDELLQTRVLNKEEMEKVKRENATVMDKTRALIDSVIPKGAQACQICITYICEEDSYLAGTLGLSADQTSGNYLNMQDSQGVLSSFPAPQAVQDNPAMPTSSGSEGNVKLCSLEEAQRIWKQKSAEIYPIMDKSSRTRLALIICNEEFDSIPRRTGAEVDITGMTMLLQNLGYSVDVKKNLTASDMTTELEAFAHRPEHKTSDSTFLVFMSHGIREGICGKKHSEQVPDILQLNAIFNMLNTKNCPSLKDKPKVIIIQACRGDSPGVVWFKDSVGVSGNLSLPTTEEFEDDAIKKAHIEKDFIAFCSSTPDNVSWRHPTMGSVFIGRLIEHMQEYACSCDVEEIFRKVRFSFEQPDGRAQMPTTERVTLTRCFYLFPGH

Interstitial collagenase = target: T5, Interstitial collagenase (Homo sapiens, UniProt P03956); type: tissue-based, Rheumatoid synovial fibroblasts
T5 sequence (P03956 whole entry): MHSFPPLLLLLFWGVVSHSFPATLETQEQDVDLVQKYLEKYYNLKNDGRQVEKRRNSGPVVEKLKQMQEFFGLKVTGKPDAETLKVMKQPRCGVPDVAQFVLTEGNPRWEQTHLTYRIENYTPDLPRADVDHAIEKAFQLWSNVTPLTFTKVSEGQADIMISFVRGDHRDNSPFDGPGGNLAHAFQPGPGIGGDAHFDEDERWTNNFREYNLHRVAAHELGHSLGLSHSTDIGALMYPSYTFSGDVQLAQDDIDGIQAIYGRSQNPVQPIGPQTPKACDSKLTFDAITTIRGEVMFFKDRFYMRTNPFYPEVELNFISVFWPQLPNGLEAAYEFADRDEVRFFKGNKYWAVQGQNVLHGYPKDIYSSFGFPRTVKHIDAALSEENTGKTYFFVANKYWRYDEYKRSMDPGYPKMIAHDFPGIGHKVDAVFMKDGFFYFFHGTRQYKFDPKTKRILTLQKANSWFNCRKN

C-C chemokine receptor type 5, sequence (P51681 whole entry): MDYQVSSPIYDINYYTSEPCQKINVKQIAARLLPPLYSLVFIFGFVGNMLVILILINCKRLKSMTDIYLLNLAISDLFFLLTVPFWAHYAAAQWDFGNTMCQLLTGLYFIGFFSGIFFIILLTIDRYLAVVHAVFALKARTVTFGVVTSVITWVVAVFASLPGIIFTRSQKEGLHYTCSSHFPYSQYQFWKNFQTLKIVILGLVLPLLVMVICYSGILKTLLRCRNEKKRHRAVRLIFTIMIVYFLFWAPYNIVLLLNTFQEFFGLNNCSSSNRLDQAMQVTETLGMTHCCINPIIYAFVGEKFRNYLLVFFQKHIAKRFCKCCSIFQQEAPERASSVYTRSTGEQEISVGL

O=P(O)(O)C(O)(Cc1cccnc1)P(=O)(O)O [RISEDRONIC ACID]
Not Active: IC50 [1] | IC50 (Calcitonin receptor) | IC50 (Carbonic anhydrase 2; erythrocyte) | IC50 [2] | IC50 (Leukotriene C4 synthase) | IC50 [3] | Ki [3] | IC50 (Caspase-1) | IC50 (Interstitial collagenase)

Nc1ccc(S(=O)(=O)Nc2nccs2)cc1 [SULFATHIAZOLE]
Not Active: IC50 [1] | IC50 (Calcitonin receptor) | IC50 (Carbonic anhydrase 2; erythrocyte) | IC50 [2] | IC50 (Leukotriene C4 synthase) | IC50 [3] | Ki [3] | IC50 (Caspase-1) | IC50 (Interstitial collagenase)

CN[C@@H]1[C@H](O)[C@H](NC)[C@H]2O[C@@]3(O)C(=O)C[C@@H](C)O[C@H]3O[C@@H]2[C@H]1O [SPECTINOMYCIN]
Not Active: IC50 [1] | IC50 (Calcitonin receptor) | IC50 (Carbonic anhydrase 2; erythrocyte) | IC50 [2] | IC50 (Leukotriene C4 synthase) | IC50 [3] | Ki [3] | IC50 (Caspase-1) | IC50 (Interstitial collagenase)

COc1cc(N)nc2[nH]c(-c3ccc(F)cc3)c(-c3ccncc3)c12
Not Active: IC50 [1] | IC50 (Calcitonin receptor) | IC50 (Carbonic anhydrase 2; erythrocyte) | IC50 [2] | IC50 (Leukotriene C4 synthase) | IC50 [3] | Ki [3] | IC50 (Caspase-1) | IC50 (Interstitial collagenase)

CN(CCOc1ccc(CC2SC(=O)NC2=O)cc1)c1ccccn1 (configuration not stated) [ROSIGLITAZONE]
4070 nM: IC50 (Carbonic anhydrase 2; read-out: IC50)
Not Active: IC50 [1] | IC50 (Calcitonin receptor) | IC50 [2] | IC50 (Leukotriene C4 synthase) | IC50 [3] | Ki [3] | IC50 (Caspase-1) | IC50 (Interstitial collagenase)

C=C(C)[C@H]1Cc2c(ccc3c2O[C@@H]2COc4cc(OC)c(OC)cc4[C@@H]2C3=O)O1 [ROTENONE]
Not Active: IC50 [1] | IC50 (Calcitonin receptor) | IC50 (Carbonic anhydrase 2; erythrocyte) | IC50 [2] | IC50 (Leukotriene C4 synthase) | IC50 [3] | Ki [3] | IC50 (Caspase-1) | IC50 (Interstitial collagenase)

O=C(O)C(Cl)(Cl)Cl [TRICHLOROACETIC ACID]
Not Active: IC50 [1] | IC50 (Calcitonin receptor) | IC50 (Carbonic anhydrase 2; erythrocyte) | IC50 [2] | IC50 (Leukotriene C4 synthase) | IC50 [3] | Ki [3] | IC50 (Caspase-1) | IC50 (Interstitial collagenase)

CNS(=O)(=O)Cc1ccc2[nH]cc(CCN(C)C)c2c1
Not Active: IC50 [1] | IC50 (Calcitonin receptor) | IC50 (Carbonic anhydrase 2; erythrocyte) | IC50 [2] | IC50 (Leukotriene C4 synthase) | IC50 [3] | Ki [3] | IC50 (Caspase-1) | IC50 (Interstitial collagenase)

CCCc1nn(C)c2c(=O)[nH]c(-c3cc(S(=O)(=O)N4CCN(C)CC4)ccc3OCC)nc12
806 nM: Ki ([1]; read-out: Ki)
Not Active: IC50 (Calcitonin receptor) | IC50 (Carbonic anhydrase 2; erythrocyte) | IC50 [2] | IC50 (Leukotriene C4 synthase) | IC50 [3] | Ki [3] | IC50 (Caspase-1) | IC50 (Interstitial collagenase)
1460 nM: IC50 ([1]; read-out: IC50)

Nc1nc2c(c(=O)[nH]1)N(C=O)C(CNc1ccc(C(=O)N[C@@H](CCC(=O)O)C(=O)O)cc1)CN2 (some centres not stated) [LEUCOVORIN]
Not Active: IC50 [1] | IC50 (Calcitonin receptor) | IC50 (Carbonic anhydrase 2; erythrocyte) | IC50 [2] | IC50 (Leukotriene C4 synthase) | IC50 [3] | Ki [3] | IC50 (Caspase-1) | IC50 (Interstitial collagenase)

CCS(=O)(=O)CCn1c([N+](=O)[O-])cnc1C [TINIDAZOLE]
Not Active: IC50 [1] | IC50 (Calcitonin receptor) | IC50 (Carbonic anhydrase 2; erythrocyte) | IC50 [2] | IC50 (Leukotriene C4 synthase) | IC50 [3] | Ki [3] | IC50 (Caspase-1) | IC50 (Interstitial collagenase)

C#CCN(C)[C@H](C)Cc1ccccc1 [SELEGILINE]
Not Active: IC50 [1] | IC50 (Calcitonin receptor) | IC50 (Carbonic anhydrase 2; erythrocyte) | IC50 [2] | IC50 (Leukotriene C4 synthase) | IC50 [3] | Ki [3] | IC50 (Caspase-1) | IC50 (Interstitial collagenase)

COc1cc(C(=O)NS(=O)(=O)c2ccccc2C)ccc1Cc1cn(C)c2ccc(NC(=O)OC3CCCC3)cc12 [ZAFIRLUKAST]
Not Active: IC50 [1] | IC50 (Calcitonin receptor) | IC50 (Carbonic anhydrase 2; erythrocyte) | IC50 [2] | IC50 (Leukotriene C4 synthase) | IC50 [3] | Ki [3] | IC50 (Caspase-1) | IC50 (Interstitial collagenase)

STANNOUS FLUORIDE
Not Active: IC50 [1] | Ki [1] | IC50 (Calcitonin receptor) | Ki (Calcitonin receptor) | IC50 (Carbonic anhydrase 2; erythrocyte) | Ki (Carbonic anhydrase 2; erythrocyte) | IC50 [2] | Ki [2] | IC50 (Leukotriene C4 synthase) | Ki (Leukotriene C4 synthase) | IC50 [3] | Ki [3] | IC50 (Caspase-1) | Ki (Caspase-1) | IC50 (Interstitial collagenase) | Ki (Interstitial collagenase)

C[C@]12CC[C@H]3[C@@H](CCC4=CC(=O)CC[C@@]43C)[C@@H]1CC[C@@H]2O [TESTOSTERONE]
Not Active: IC50 [1] | IC50 (Calcitonin receptor) | IC50 (Carbonic anhydrase 2; erythrocyte) | IC50 [2] | IC50 (Leukotriene C4 synthase) | IC50 [3] | Ki [3] | IC50 (Caspase-1) | IC50 (Interstitial collagenase)

COc1ccc(/C=C/C(=O)Nc2ccccc2C(=O)O)cc1OC
Not Active: IC50 [1] | IC50 (Calcitonin receptor) | IC50 (Carbonic anhydrase 2; erythrocyte) | IC50 [2] | IC50 (Leukotriene C4 synthase) | IC50 [3] | Ki [3] | IC50 (Caspase-1) | IC50 (Interstitial collagenase)
